Data: US20250206716A1, “Crystal form of Vonoprazan pyroglutamate and preparation method therefor” (HARWAY PHARMA CO., LTD, priority 2022, published 2025)
Structures can show the parent of a compound that is named as a salt. One block for each molecule: values may come before it.

Tests used:
[1] = Thermal stability test (open containers at 60° C., purity by HPLC); assay type: physicochemical; conditions: mean of three replicates; for Purity (%), Day 31: HPLC purity after 30 days in open container at 60° C.; for Purity (%), Initial point: HPLC purity before storage
Procedure: The chromatographic conditions for HPLC purity testing of the product involved in the present invention are as follows:
Column: Ultimate XB-C18, column length: 150 mm, inner diameter: 4.6 mm, particle size: 5 μm
Flow rate: 1.2 mL/min; column temperature: 30° C.; wavelength: 210 nm; injection volume: 20 μL; solvent: acetonitrile-water (volume ratio 5:95)
Mobile phase A: acetonitrile-0.02 mol/L potassium dihydrogen phosphate (adjusted to pH 2.5 with phosphoric acid) (volume ratio 5:95)
Mobile phase B: methanol-acetonitrile-0.02 mol/L potassium dihydrogen phosphate (adjusted to pH 2.5 with phosphoric acid) (volume ratio 7:63:30)
The proportions of mobile phases A and B over time are as follows:
(§1) “Absence of deliquescence” refers to that no moisture absorption is observed on the sample surface, “slight deliquescence” refers to that moisture absorption is observed on the sample surface, and “obvious deliquescence” refers to that lubrication can be observed on the sample surface. • (2) Thermal stability test: The product A and crystal form I were stored separately in open containers at 60° C. and tested for storage stability after 30 days (Day 31). Samples at initial and after 30 days of storage were tested for purity by HPLC with three replicates per sample and averaged and the results are presented in the following table.

[2] = target: T1, H^+K^+-ATPase (Sus scrofa, UniProt P19156); assay: Inhibition of H^+K^+-ATPase in microsomal vesicles of porcine gastric mucosa; assay type: biochemical; conditions: pH 6.8, inorganic phosphorus readout
T1 construct: H^+K^+ATPase was extracted from porcine gastric mucosal microsomal vesicles by iPhase; tissue iPhase; host or cells: porcine gastric mucosa, microsomal vesicles
Text: Test method: H^+K^+-ATPase is an ATPase localized in gastric mucosal parietal cells and activated exclusively by K^+. In this experiment, H^+K^+-ATPase was extracted from the microsomal vesicles of porcine gastric mucosa, and ATPase could decompose ATP to generate ADP and inorganic phosphorus. The test article combined H^+K^+-ATPase and inhibited its activity. The level of ATPase activity was judged by measuring the amount of inorganic phosphorus, and the inhibitory effect of the test article was determined.
H^+K^+ATPase was extracted from porcine gastric mucosal microsomal vesicles by iPhase.
100 mM TRIS-HCL (PH 6.8): 100 μL 1M TRIS-HCL was added to 900 μl ddH2O and mixed well.
37.5 mM MgCl2: 50 mg MgCl2 was added to […] ddH2O and mixed well. 200 mM KCl: 500 mg KCl was added to 33.5 mL ddH2O and mixed well. 10 mM nigericin and valinomycin: 669 μl and 890 μL DMSO were added and mixed, dispensed into 1 μL nigericin and 5 μl valinomycin per tube, and stored at −20° C.
0.1 mg/ml microsomal vesicles: Protein concentrations were determined upon arrival and dispensed, stored at −80° C., and diluted with 5 mM TRIS-HCL for use.
Control compound: TAK438 was prepared as a 10 mM stock solution in DMSO and dispensed in 1 μL per tube.
Test compound: Product A and crystal form I were prepared as 10 mM stock solutions in ddH2O, and dispensed in 1 μL per tube.
With 20 μM (or 40 μM) as the highest concentration, the control compound and the test compound were diluted stepwise 3-fold with DMSO and ddH2O, respectively, to obtain the samples to be tested at 6 (or 7 or 8) concentration gradients.
Water bath at 37° C. for 30 min, 16.5 μL ATP added and mixed well, and water bath at 37° C. for 30 min
The chromogenic agent was prepared based on the instructions of *H^+K^+ ATP kit (Nanjing Jiancheng).
Per the enzymatic reaction volume of 150 μL, 45 μl of chromogen was added and mixed well, allowed to stand for 2 min, and the absorbance light signal at 660 nm was read by a microplate reader.
• 1) The inhibition rate was calculated according to the following formula: […]

[3] = Deliquescence test (storage at 40° C. and 75% relative humidity); assay type: physicochemical; design: key: “Absence of deliquescence” refers to that no moisture absorption is observed on the sample surface; Slight: “slight deliquescence” refers to that moisture absorption is observed on the sample surface; Obvious: “obvious deliquescence” refers to that lubrication can be observed on the sample surface
Procedure: • (1) Deliquescence test: The product A, crystal form I, and TAK-438 were stored at 40° C. and 75% relative humidity and observed for deliquescence for 30 days, with results recorded every 10 days as detailed in the table below.
as §1

[4] = system: histamine-induced gastric acid secretion; assay: Effect on histamine-induced gastric acid secretion in rats; assay type: in vivo, SD rats
Text: Surgical modeling: Rats were anesthetized with intraperitoneal injection of ethyl carbamate at a dose of 1.5 g/kg. Rats under complete anesthesia were shaved from the neck and abdomen, and were intubated to maintain airway patency during surgery. The cardiac perfusion tube was orally inserted about 1 cm into the stomach of rats, and the other end of the cardiac perfusion tube was connected to a constant flow pump. A small incision was made below the xiphoid cartilage to find the duodenum, an incision was made transversely, the end of the collection tube of gastric pyloric samples was passed along the duodenum into the stomach about 1 cm through the wound, the duodenum was tightened with the collection tube of gastric pyloric samples with a suture, and the other end of the duodenal incision was tightened. Gastric lavage remnants were rapidly flushed along the esophago-cardia cannula with 150 mL of 37° C. prewarmed saline, outflowed through the collection tube of gastric pylorus samples, and the abdominal wall was sutured to the skin. Perfusion was continued with normal saline at a rate of 1 mL/min for 30 min, the other end of the col-lection tube for gastric pyloric samples was left in vitro, gastric juice samples were collected in conical flasks (one sample per 20 min of col-lection), and two basal gastric juice samples were collected, at which time basal gastric acid secretion reached a steady state.
Histamine-induced gastric acid secretion: Histamine was administered to rats by continuous tail vein injection with a microinjection pump at a dose of 20 μmol/kg/hr. Gastric acid was collected after 80 min, and after three time points, histamine secretion reached a steady state in rats, which was grouped according to the value of gastric acid secretion after histamine administration in rats, and candidate drugs or vehicle controls were administered based on the protocol. […] The details are as follows:
The required amount of Vonoprazan fumarate was weighed, added with an appropriate amount of 0.5% CMC-Na, stirred, sonicated to obtain a homogeneous suspension, and diluted sequentially to the corresponding concentration according to the concentration required by the protocol.
The required amount of HW-N2001 was weighed, added with appropriate physiological saline, and mixed thoroughly to obtain a clear solution, and the pH was adjusted to a range of 3.2 to 3.8. Based on the concentrations required by the protocol, the corresponding concentrations were successively diluted.
One hundred and eighteen of 130 SD rats in good health were selected and randomly divided into 8 groups according to body weight and base-line value after histamine administration after the end of the adaptation period, as detailed in the table below.
Collected gastric juice samples were taken and titrated with 0.01 N sodium hydroxide solution by a basic burette to PH7 as the endpoint, with the phenolphthalein indicator as a color indicator. The titration volume was measured and the acid secretion is calculated according to the following formula: acid secretion (μEq)=volume of NaOH (mL)×10^−3×0.01 mol/L×10^6.
Two basal gastric juice samples were collected, and an infusion extension tube prematurely inhaled with histamine was connected to the indwelling needle of tail vein in rats after basal gastric acid levels were stabilized. The syringe pump was opened, and histamine was calculated according to the dose of 20 μmol/kg/hr and the intravenous drip rate of each animal in the syringe pump was set. Gastric acid samples after histamine administration were collected after 80 minutes of continuous injection of histamine solution.

[5] = 0.375 mg/kg i.v., 60 min after administration
[6] = 0.375 mg/kg i.v., 180 min after administration
[7] = 0.75 mg/kg i.v., 20 min after administration
[8] = 1.5 mg/kg i.v., 20 min after administration
[9] = 1.5 mg/kg i.v., 80 min after administration
[10] = 1.5 mg/kg i.v., 180 min after administration
[11] = 2 mg/kg i.d., 60 min after administration
[12] = 2 mg/kg i.d., 180 min after administration
[13] = 4 mg/kg i.d., 40 min after administration
[14] = 4 mg/kg i.d., 180 min after administration

T1 sequence (P19156 2-1034 limits assumed): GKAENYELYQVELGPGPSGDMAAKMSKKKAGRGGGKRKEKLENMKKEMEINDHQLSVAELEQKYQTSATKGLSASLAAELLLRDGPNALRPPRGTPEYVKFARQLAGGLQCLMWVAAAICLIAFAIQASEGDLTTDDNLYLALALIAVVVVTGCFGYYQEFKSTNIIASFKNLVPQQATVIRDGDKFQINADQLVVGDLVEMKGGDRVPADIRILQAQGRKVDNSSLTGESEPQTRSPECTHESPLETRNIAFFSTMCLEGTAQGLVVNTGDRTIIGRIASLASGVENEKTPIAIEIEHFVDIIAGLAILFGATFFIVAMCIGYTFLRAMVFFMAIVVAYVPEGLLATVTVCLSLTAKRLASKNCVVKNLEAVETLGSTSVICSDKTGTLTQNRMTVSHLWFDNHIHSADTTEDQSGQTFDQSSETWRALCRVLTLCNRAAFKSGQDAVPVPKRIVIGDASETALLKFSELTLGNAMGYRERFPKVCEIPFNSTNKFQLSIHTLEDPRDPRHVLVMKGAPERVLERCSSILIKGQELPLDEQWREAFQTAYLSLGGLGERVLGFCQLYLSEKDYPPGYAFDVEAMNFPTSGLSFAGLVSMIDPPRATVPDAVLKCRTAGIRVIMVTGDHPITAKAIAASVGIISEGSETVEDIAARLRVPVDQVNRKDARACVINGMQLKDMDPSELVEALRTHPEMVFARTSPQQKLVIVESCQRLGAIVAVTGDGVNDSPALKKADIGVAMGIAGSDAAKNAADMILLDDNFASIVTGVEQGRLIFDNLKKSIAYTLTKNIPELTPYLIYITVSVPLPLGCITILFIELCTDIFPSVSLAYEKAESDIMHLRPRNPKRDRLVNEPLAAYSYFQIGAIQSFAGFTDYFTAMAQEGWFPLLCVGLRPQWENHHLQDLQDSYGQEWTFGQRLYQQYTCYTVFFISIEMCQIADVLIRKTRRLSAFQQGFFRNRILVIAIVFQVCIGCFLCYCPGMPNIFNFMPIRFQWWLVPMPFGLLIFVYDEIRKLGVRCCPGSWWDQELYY
T1 sequence (P18434 whole entry partner): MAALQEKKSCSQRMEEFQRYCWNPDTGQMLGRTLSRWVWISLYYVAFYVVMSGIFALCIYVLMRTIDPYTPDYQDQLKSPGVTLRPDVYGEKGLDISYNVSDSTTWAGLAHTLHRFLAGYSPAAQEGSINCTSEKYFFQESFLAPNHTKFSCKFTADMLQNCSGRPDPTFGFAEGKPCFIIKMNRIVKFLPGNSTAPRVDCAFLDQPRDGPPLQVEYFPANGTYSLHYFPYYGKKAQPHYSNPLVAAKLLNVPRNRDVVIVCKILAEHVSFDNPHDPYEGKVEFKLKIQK

Molecule: 5-(2-fluorophenyl)-N-methyl-1-(3-pyridylsulfonyl)-1H-pyrrole-3-methylamine pyroglutamate [Crystal form I]
Purity (%), Day 31 [1]: 99.2%
Purity (%), Initial point [1]: 99.8%
IC50 [2]: 40.4 nM
Deliquescence, Day 10 [3]: Absence of
Deliquescence, Day 20 [3]: Slight
Deliquescence, Day 30 [3]: Obvious
Gastric acid secretion [4, 5]: 39.15±8.54 μEq HCl/20 min
Inhibition rate of gastric acid secretion [4, 5]: 4.34%±1.28
Gastric acid secretion [4, 6]: 28.46±5.71 μEq HCl/20 min
Inhibition rate of gastric acid secretion [4, 6]: 27.52%±1.43
Gastric acid secretion [4, 7]: 37.53±9.87 μEq HCl/20 min
Inhibition rate of gastric acid secretion [4, 7]: 11.6%±0.82
Inhibition rate of gastric acid secretion ([4]; 0.75 mg/kg i.v., 180 min after administration): 73.68%±1.47
Gastric acid secretion [4, 8]: 25.67±10.15 μEq HCl
Inhibition rate of gastric acid secretion [4, 8]: 33.28%±0
Gastric acid secretion [4, 9]: 3.4±1.18 μEq HCl
Inhibition rate of gastric acid secretion [4, 9]: 89.64%±0
Gastric acid secretion [4, 10]: 2.2±0.56 μEq HCl
Inhibition rate of gastric acid secretion [4, 10]: 93.56%±0.09
Time after administration at which pharmacodynamic effect reached a stable state ([4]; 0.75 and 1.5 mg/kg i.v.): 60 to 100 min
Time after administration at which pharmacodynamic effect was gradually exerted ([4]; 0.75 and 1.5 mg/kg i.v.): 20 min
ID50 ([4]; intravenous administration, 180 min after administration): 0.53 mg/kg

Molecule: 5-(2-fluorophenyl)-N-methyl-1-(3-pyridylsulfonyl)-1H-pyrrole-3-methylamine pyroglutamate [Product A]
Purity (%), Day 31 [1]: 94.6%
Purity (%), Initial point [1]: 98.0%
IC50 [2]: 53.4 nM
Deliquescence, Day 10 [3]: Slight
Deliquescence, Day 20 [3]: Obvious
Deliquescence, Day 30 [3]: Obvious

IC50 [2]: 41.5 nM
Deliquescence, Day 10 [3]: Absence of
Deliquescence, Day 20 [3]: Absence of
Deliquescence, Day 30 [3]: Absence of
Molecule: CNCc1cc(-c2ccccc2F)n(S(=O)(=O)c2cccnc2)c1 [TAK-438, Vonoprazan fumarate]
Gastric acid secretion after administration vs vehicle ([4]; 1 mg/kg i.d., rats): not significantly decreased
Time after administration at which pharmacodynamic effect was gradually exerted ([4]; 2 mg/kg i.d.): 60 min
Gastric acid secretion [4, 11]: 33.21±15.63 μEq HCl/20 min
Inhibition rate of gastric acid secretion [4, 11]: 13.71%±2.12
Gastric acid secretion [4, 12]: 16.21±14.46 μEq HCl/20 min
Inhibition rate of gastric acid secretion [4, 12]: 57.48%±2.27
Time after administration at which pharmacodynamic effect was gradually exerted ([4]; 4 mg/kg i.d.): 140 min
Gastric acid secretion [4, 13]: 33.18±11.15 μEq HCl/20 min
Inhibition rate of gastric acid secretion [4, 13]: 12.47%±1.13
Gastric acid secretion [4, 14]: 4.41±4.02 μEq HCl/20 min
Inhibition rate of gastric acid secretion [4, 14]: 87.03%±0.81
Time at which strongest efficacy was reached ([4]; duodenal administration): 180 min
ID50 ([4]; duodenal administration, 180 min): 1.87 mg/kg
